Test results as given in patent US8748618B2, “Inhibitors of inv(16) leukemia” (University of Virginia Patent Foundation, priority 2009, dated 2014).

How the values were obtained:
[1] = biological target: CBFβ-SMMHC:RD (CBFβ-SMMHC binding to the Runt domain); assay: FRET assay, inhibition of CBFβ-SMMHC binding to the Runt domain; details: for IC50 FRET (CBFβ-SMMHC:RD, 20 nM both): 20 nM both proteins
Method: FRET assay. […] We fused the green fluorescent protein derivative Cerulean to the N-terminus of the Runt domain and the green fluorescent protein derivative Venus to the N-terminus of CBFβ-SMMHC (as well as to CBFβ (Gorczynski, Grembecka et al. 2007)). The ratio of the emission intensities at 525 nm and 474 nm, measured after excitation at 433 nm, was used as the readout in this assay. The dynamic range for the FRET assay was determined by adding a 30-fold excess of untagged CBFβ-SMMHC (or CBFβ in the case of CBFβ—Runt domain binding) to the assay and the associated change in the FRET ratio was defined as 100% inhibition.
As shown by Shoichet and co-workers (Seidler, McGovern et al. 2003), a primary source of false positives in any screen is micelle formation. […] A substantial loss of activity in the presence of detergent is a hallmark of inhibition by micelle formation and such compounds are thus identified as false positives. In addition, we are also incubating compound with protein and checking by mass spectroscopy to ensure that positive hits are not acting by covalent addition to either of the proteins.

CBFβ = CBFβ (Homo sapiens (Human), UniProt Q13951); assay: NMR chemical shift perturbation with CBFβ; type: binding; details: for NMR with CBFβ + 250 uM compound, CSP G 112: residue G 112; for NMR with CBFβ + 250 uM compound, CSP K 98: residue K 98
Chain of CBFβ (Q13951 1-141, species assumed): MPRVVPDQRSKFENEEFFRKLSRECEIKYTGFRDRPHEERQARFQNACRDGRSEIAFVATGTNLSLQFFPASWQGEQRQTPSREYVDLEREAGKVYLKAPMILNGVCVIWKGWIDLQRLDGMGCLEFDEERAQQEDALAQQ
From the text: Validation of binding of a small molecule inhibitor to its protein target is an essential step in developing potent inhibitors. This can be readily achieved using either NMR spectroscopy or X-ray crystallography. In the case of X-ray crystallography, this is achieved by co-crystallization of the protein with the ligand and determination of the structure. In the case of NMR spectroscopy, the structure of a compound-protein complex can also be determined. In addition, chemical shift perturbations of the protein NMR spectrum (typically 2D ^15N—^1H HSQC or ^13C—^1H HSQC) in the presence of compounds can both confirm binding to the target and localize the binding site on a protein (Pellecchia, Sem et al. 2002; Salvatella and Giralt 2003). The latter method is a quick and efficient method to confirm binding to the protein and to determine the binding site when appropriate labeled samples are available and the resonance assignments are known. Such data can also be used to dock the small molecule to the protein. Because the structure of CBFβ has been solved by NMR (Huang, Peng et al. 1999), resonance assignments are available and we have employed this approach as an additional screen to ensure the validity of the inhibitors we are developing and to determine the binding site (see below).

Jurkat cells = assay: MTT assay, growth of Jurkat cells; type: cell-based
From the text: (§1) We have tested several of the compounds we have synthesized for their effects on ME-1 cells, a leukemia cell line harboring the inv(16) (Yanagisawa, Horiuchi et al. 1991). […] AI-4-57 has also been tested against the Kasumi-1, Jurkat, and RS4; 11 leukemia cell lines (FIG. 4.B). […] We have also examined effects on apoptosis using flow cytometry to measure Annexin V/PI (propidium iodide) positivity. […] The selectivity for specific cell lines and the correlation of activity in the FRET assay with effects on inv(16) cells all support the hypothesis that the compounds are hitting the desired target.
(§2) Below are two exemplary dimeric compound formulas, shown here without the possible substituents indicated elsewhere herein.

ME-1 cells = assay: MTT viability assay, growth of ME-1 cells; type: cell-based, human
From the text: as §1
The dimer with a 7 atom linker (AI-4-62) has been tested for effects on the growth of the ME-1 cell line (see FIG. 7), a leukemia cell line with the inv(16).

RS4; 11 cells = assay: MTT assay, growth of RS4;11 cells; type: cell-based
From the text: as §1, §2

Kasumi-1 cells = assay: MTT assay, growth of Kasumi-1 cells; type: cell-based
From the text: as §1, §2

[2] = system: inv(16) leukemia initiating cells; assay: Apoptosis of inv(16) leukemia initiating cells from a mouse model; type: cell-based; details: 3 day treatment, 2 μM, FIG. 12
From the text: (§3) Dr. Lucio Castilla's lab has identified a specific population of cells referred to as leukemia initiating cells using mouse models of inv(16) leukemia (Kuo, Y. H., et al., Cbf beta-SMMHC induces distinct abnormal myeloid progenitors able to develop acute myeloid leukemia. Cancer Cell, 2006. 9(1): p. 57-68). […] Upon acquisition of such secondary mutations, these cells can progress to overt leukemia. These cells are also typically more resistant to traditional cytotoxic chemotherapy and therefore represent a pool of cells from which relapse can occur. We have tested AI-4-83 against this pool of cells and shown that the compound is very effective at inducing apoptosis in this population.

[3] = system: normal bone marrow mononuclear cells; assay: Effect on normal bone marrow mononuclear cells (control of the leukemia initiating cell test); type: cell-based
From the text: as §3

CDKN1a gene expression = CDKN1a gene expression by RT-PCR in ME-1 cells; type: cell-based, human; details: 10, 5 and 2.5 μM, FIG. 9
From the text: The effects of the dimeric inhibitor AI-4-83 on CDKN1a gene expression were examined using RT-PCR. […] In addition, the effect of AI-4-83 is much more substantial than that for the monomeric compound, supporting the increased efficacy of the dimeric versus monomeric compounds.

[4] = system: human bone marrow mononuclear cells (BM MNCs); assay: MTT assay on human bone marrow mononuclear cells; type: cell-based; details: 48 hour treatment, up to 10 μM
Method: (§4) We have tested AI-4-83 on human bone marrow mononuclear cells (for toxicity) and on one inv(16) patient sample using an MTT assay after a 48 hour compound treatment.

[5] = system: inv(16) repression (CBFβ-SMMHC) at RUNX binding site reporter; assay: Luciferase reporter assay of inv(16) repression; type: cell-based; details: FIG. 10
From the text: A luciferase reporter assay has been developed to test the effects of inhibitors on inv(16) repression. Expression of luciferase is driven by multiple copies of a RUNX binding site using endogenous RUNX and CBFβ. CBFβ-SMMHC is expressed in these cells, resulting in repression of luciferase expression.

[6] = system: inv(16) patient sample cells; assay: MTT assay on inv(16) patient sample; type: cell-based, human; details: 48 hour treatment, 10 μM
Method: as §4

SMILES: FC(F)(F)c1cccc2[nH]c(-c3ccccn3)nc12 [AI-4-47]
- IC50 FRET (CBFβ-SMMHC:RD, 20 nM both) ([1]; Table 1 monomers): Interference with assay

SMILES: COc1ccc2[nH]c(-c3ccccn3)nc2c1 [AI-4-57]
- NMR with CBFβ + 250 uM compound, CSP G 112 (CBFβ): 0.039 ppm
- NMR with CBFβ + 250 uM compound, CSP K 98 (CBFβ): 0.026 ppm
- Growth of Jurkat cells (Jurkat cells; MTT, FIG. 4B): No effect on growth
- Growth of ME-1 cells (ME-1 cells; MTT, FIG. 4A): effective inhibition of growth
- Growth of RS4;11 cells (RS4; 11 cells; MTT, FIG. 4B): No effect on growth
- Growth of Kasumi-1 cells (Kasumi-1 cells; MTT, FIG. 4B): modest effect

SMILES: COc1ccc(-c2nc3cc(OC)ccc3[nH]2)nc1 [AI-4-61]
- NMR with CBFβ + 250 uM compound, CSP G 112 (CBFβ): 0.015 ppm
- NMR with CBFβ + 250 uM compound, CSP K 98 (CBFβ): 0.013 ppm

SMILES: COc1ccc2[nH]c(-c3ccc(OCCOCCOc4ccc(-c5nc6cc(OC)ccc6[nH]5)nc4)cn3)nc2c1 [AI-4-62]
- Cell death of leukemia initiating cells [2]: 80%
- Effect on normal bone marrow mononuclear cells [3]: no effect
- CDKN1a gene expression (CDKN1a gene expression): dose-dependent substantial increase
- Viability of bone marrow mononuclear cells [4]: no effect on the viability
- Effect on Jurkat cells (Jurkat cells; 10 μM, FIG. 8): little to no effect
- Luciferase activity [5]: dose-dependent increase in luciferase activity
- inhibition at 10 µM (ME-1 cells; Homo sapiens, ME-1, 10 μM): 100%
- Potency of dimer relative to the corresponding monomer on ME-1 cells (ME-1 cells; MTT, FIG. 7): ~15 fold
- Effect on RS4;11 cells (RS4; 11 cells; 10 μM, FIG. 8): little to no effect
- Effect on Kasumi-1 cells (Kasumi-1 cells; 10 μM, FIG. 8): little to no effect
- Viability of inv(16) patient sample [6]: substantial effect

SMILES: CC(C)Oc1ccc2[nH]c(-c3ccccn3)nc2c1 [AI-4-70]
- NMR with CBFβ + 250 uM compound, CSP G 112/K 98 (in words) (CBFβ): No CSP

SMILES: c1ccc(-c2nc3cc(N4CCOCC4)ccc3[nH]2)nc1 [AI-10-3]
- NMR with CBFβ + 250 uM compound, CSP G 112/K 98 (in words) (CBFβ): No CSP

SMILES: CN(C)c1ccc2[nH]c(-c3ccc(OCCOCCOc4ccc(-c5nc6cc(N(C)C)ccc6[nH]5)nc4)cn3)nc2c1 [AI-10-21]
- IC50 FRET (CBFβ-SMMHC:RD, 20 nM both) ([1]; Table 2 dimers): Interference with assay

SMILES: CSc1ccc2[nH]c(-c3ccccn3)nc2c1 [AI-10-35]
- NMR with CBFβ + 250 uM compound, CSP G 112 (CBFβ): 0.037 ppm
- NMR with CBFβ + 250 uM compound, CSP K 98 (CBFβ): 0.027 ppm

SMILES: FC(F)(F)Oc1ccc2[nH]c(-c3ccccn3)nc2c1 [AI-10-47]
- NMR with CBFβ + 250 uM compound, CSP G 112/K 98 (in words) (CBFβ): No CSP
- Precipitation in the NMR sample (CBFβ; 250 uM compound with CBFβ): some precipitation

SMILES: COc1ccc2[nH]c(-c3ncccc3OC)nc2c1 [AI-10-53]
- NMR with CBFβ + 250 uM compound, CSP G 112 (CBFβ): 0.028 ppm
- NMR with CBFβ + 250 uM compound, CSP K 98 (CBFβ): 0.02 ppm

SMILES: O=C(O)c1ccc2[nH]c(-c3ccccn3)nc2c1 [AI-10-57]
- NMR with CBFβ + 250 uM compound, CSP G 112/K 98 (in words) (CBFβ): No CSP

SMILES: Oc1ccc2[nH]c(-c3ccccn3)nc2c1 [AI-10-61]
- NMR with CBFβ + 250 uM compound, CSP G 112/K 98 (in words) (CBFβ): No CSP

SMILES: Cc1cccnc1-c1nc2cc(OC(F)(F)F)ccc2[nH]1 [AI-10-63]
- Δ500 [1]: Δ500 = 61%

SMILES: FC(F)(F)Oc1ccc2[nH]c(-c3ncccc3C(F)(F)F)nc2c1 [AI-10-64]
- Δ500 [1]: Δ500 = 50%

SMILES: COc1ccc2[nH]c(-c3ncccc3C(F)(F)F)nc2c1 [AI-10-69]
- Δ167 [1]: Δ167 = 18%

SMILES: NC(=O)c1ccc2[nH]c(-c3ccccn3)nc2c1 [AI-10-70]
- Δ500 [1]: Δ500 = 61%
